In ChEMBL document CHEMBL1148819, “Structure, derivatization, and antitumor activity of new griseusins from Nocardiopsis sp” (J Med Chem, 2007):

Tests used:
[1] = Cytotoxicity against MEXF520L cells after 4 days by monolayer assay; type: functional, cell-based; conditions: Homo sapiens, MEXF 520L, 96 h
[2] = Cytotoxicity against RXF468L cells after 4 days by monolayer assay; type: functional, cell-based; conditions: Homo sapiens, 96 h
MCF7 = experiment: Cytotoxicity against MCF7 cells after 4 days by monolayer assay; type: functional, cell-based; conditions: Homo sapiens, MCF7, 96 h
RXF 393 [3] = experiment: Cytotoxicity against RXF393NL cells after 4 days by monolayer assay; type: functional, cell-based; conditions: Homo sapiens, RXF 393NL, 96 h
[4] = Cytotoxicity against MAXF401 cells after 4 days by monolayer assay; type: functional, cell-based; conditions: Homo sapiens, MAXF401, 96 h
[5] = Cytotoxicity against MEXF535 cells after 2 to 7 days by clonogenic assay; type: functional, cell-based; conditions: Homo sapiens
PAXF736 = experiment: Cytotoxicity against PAXF736 cells after 2 to 7 days by clonogenic assay; type: functional, cell-based; conditions: Homo sapiens
[6] = Cytotoxicity against RXF944L cells after 4 days by monolayer assay; type: functional, cell-based; conditions: Homo sapiens, RXF 944L, 96 h
MEXF989 = experiment: Cytotoxicity against MEXF989 cells after 2 to 7 days by clonogenic assay; type: functional, cell-based; conditions: Homo sapiens, MEXF 989
[7] = Cytotoxicity against MEXF394NL cells after 4 days by monolayer assay; type: functional, cell-based; conditions: Homo sapiens, MEXF 394NL, 96 h
[8] = Cytotoxicity against PRXF22Rv1 cells after 4 days by monolayer assay; type: functional, cell-based; conditions: Homo sapiens, 96 h
[9] = Cytotoxicity against human umbilical cord hematopoietic stem cells after 12 days by clonogenic assay; type: cell-based; conditions: 288 h
[10] = Cytotoxicity against BXF1218L cells after 4 days by monolayer assay; type: functional, cell-based; conditions: Homo sapiens, BXF 1218L, 96 h
[11] = Cytotoxicity against CXF264 cells after 2 to 7 days by clonogenic assay; type: functional, cell-based; conditions: Homo sapiens
RXF 393 [12] = experiment: Cytotoxicity against RXF393 cells after 2 to 7 days by clonogenic assay; type: functional, cell-based; conditions: Homo sapiens
PAXF546 = experiment: Cytotoxicity against PAXF546 cells after 2 to 7 days by clonogenic assay; type: functional, cell-based; conditions: Homo sapiens
MDA-MB-468 = experiment: Cytotoxicity against MDA-MB-468 cells after 4 days by monolayer assay; type: functional, cell-based; conditions: Homo sapiens, MDA-MB-468, 96 h
[13] = Cytotoxicity against LXF-1121L cells after 4 days by monolayer assay; type: functional, cell-based; conditions: Homo sapiens, 96 h
[14] = Cytotoxicity against MEXF514L cells after 4 days by monolayer assay; type: functional, cell-based; conditions: Homo sapiens, MEXF 514L, 96 h
[15] = Cytotoxicity against CXF1103 cells after 2 to 7 days by clonogenic assay; type: functional, cell-based; conditions: Homo sapiens
[16] = Cytotoxicity against CXF158 cells after 2 to 7 days by clonogenic assay; type: functional, cell-based; conditions: Homo sapiens
[17] = Cytotoxicity against MAXF583 cells after 2 to 7 days by clonogenic assay; type: functional, cell-based; conditions: Homo sapiens
[18] = Cytotoxicity against MEXF462NL cells after 4 days by monolayer assay; type: functional, cell-based; conditions: Homo sapiens, MEXF 462NL, 96 h
[19] = Cytotoxicity against MAXF1162 cells after 2 to 7 days by clonogenic assay; type: functional, cell-based; conditions: Homo sapiens
MEXF276L = experiment: Cytotoxicity against MEXF276L cells after 4 days by monolayer assay; type: functional, cell-based; conditions: Homo sapiens, 96 h
CCRF-CEM = experiment: Cytotoxicity against CCRF-CEM cells after 2 to 7 days by clonogenic assay; type: functional, cell-based; conditions: Homo sapiens
MDA-MB-231 = experiment: Cytotoxicity against MDA-MB-231 cells after 4 days by monolayer assay; type: functional, cell-based; conditions: Homo sapiens, MDA-MB-231, 96 h
[20] = Cytotoxicity against RXF944LX cells after 2 to 7 days by clonogenic assay; type: functional, cell-based; conditions: Homo sapiens, RXF 944LX

C[C@@H]1CC(=O)[C@@H](O)[C@]2(O1)O[C@@H]1CC(=O)O[C@@H]1C1=C2C(=O)c2c(O)cccc2C1=O
IC50 [1]: 87 nM
IC50 [2]: 95 nM
IC50 (MCF7): 150 nM
IC50 (RXF 393 [3]): 95 nM
IC50 [4]: 150 nM
IC50 [5]: 137 nM
IC50 (PAXF736): 614 nM
IC50 [6]: 95 nM
IC50 (MEXF989): 295 nM
IC50 [7]: 87 nM
IC50 [8]: 177 nM
IC50 [9]: 1190 nM
IC50 [10]: 140 nM
IC50 [11]: 257 nM
IC50 (RXF 393 [12]): 375 nM
IC50 (PAXF546): 420 nM
IC50 (MDA-MB-468): 150 nM
IC50 [13]: 207 nM
IC50 [14]: 87 nM
IC50 [15]: 257 nM
IC50 [16]: 257 nM
IC50 [17]: 195 nM
IC50 [18]: 87 nM
IC50 [19]: 455 nM
IC50 (MEXF276L): 87 nM
IC50 (CCRF-CEM): 132 nM
IC50 (MDA-MB-231): 150 nM
IC50 [20]: 290 nM
